Data from US20040037868A1, “Select prebiotics for use in weight attenuation message and method of communication” (priority 2002, published 2004).

Experiments:
[1] = associated with a 1000-mg calcium intake increase; women of various ages; estimate; cited from earlier work
[2] = double blind three-week study of calcium retention and absorption, inulin delivered in a RTE cereal (mass balance, stable isotope enrichment); assay type: in vivo, human; conditions: adolescent girls, ages 11-13, roughly 1600 mg calcium per day and 9 grams of inulin, three weeks
Protocol: In one double blind study ranging over a period of three weeks, a number of adolescent girls, ages 11-13, were provided with a diet containing roughly 1600 mg/calcium per day and 9 grams of inulin. The diet was delivered as part of a RTE cereal and the amount of calcium retention and absorption was measured by mass balance and stable isotope enrichment. Stool and urine samples were collected and analyzed for calcium excretion by atomic absorption spectrometry. Calcium retention was calculated as: Diet Ca−urine Ca−fecal Ca. Blood samples were also taken at prescribed intervals and serum and urine were analyzed for Ca by plasma mass spectrometry. The results of the analysis provided that inulin had no effect on the retention or absorption of calcium by subjects in this particular demographic.

[3] = calcium absorbed and retained in postmenopausal women versus placebo; assay type: in vivo, human; conditions: inulin in a food product
Description: It is believed that food products prepared in accordance with the present invention, would however provide an enhanced benefit to certain selected demographic sections of the population, namely postmenopausal women.

Compound | decrease in mean body weight [1] [kg] | effect on absorption of calcium [2] | effect on retention of calcium [2] | level of calcium absorbed and retained versus placebo [3]
[Ca+2] [calcium] | 8 | – | – | –
inulin | – | no effect | no effect | higher
